{"source": "paper PMC6508495", "about": "“Members of the abscisic acid co‐receptor PP2C protein family mediate salicylic acid–abscisic acid crosstalk” (Plant Direct, 2017)", "key": {"PP2C-D4 [1]": {"biological_target": "T1, PP2C-D4 (Arabidopsis thaliana, UniProt Q94CL8)", "T1 construct": "gene PP2C6; ORF from Arabidopsis cDNA library in pET42a (NdeI/XhoI), His6-tagged, E. coli Rosetta 2 (DE3), Ni-NTA and gel filtration", "T1 sequence (Q94CL8 1-384)": "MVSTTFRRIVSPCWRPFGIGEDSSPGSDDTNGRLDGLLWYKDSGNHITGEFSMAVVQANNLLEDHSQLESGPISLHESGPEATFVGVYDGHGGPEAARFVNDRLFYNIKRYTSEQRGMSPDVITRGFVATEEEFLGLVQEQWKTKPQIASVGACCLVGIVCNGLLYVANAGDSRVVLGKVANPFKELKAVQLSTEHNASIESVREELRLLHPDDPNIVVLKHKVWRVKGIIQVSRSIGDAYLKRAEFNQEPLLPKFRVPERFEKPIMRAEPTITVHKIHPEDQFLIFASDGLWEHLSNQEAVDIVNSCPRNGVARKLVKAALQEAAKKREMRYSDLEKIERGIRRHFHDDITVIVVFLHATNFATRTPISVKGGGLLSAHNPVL", "assay": "SPR, 3AESA immobilised on CM5 chip", "assay_type": "binding", "conditions": "3AESA amide-coupled to chip; 1 uM protein; competed by SA"}, "ABI1 [2]": {"biological_target": "T2, ABI1 (Arabidopsis thaliana, UniProt P49597)", "T2 construct": "ORF from Arabidopsis cDNA library in pET28a, His6-tagged, E. coli Rosetta 2 (DE3), Ni-NTA and gel filtration", "T2 sequence (P49597 1-434)": "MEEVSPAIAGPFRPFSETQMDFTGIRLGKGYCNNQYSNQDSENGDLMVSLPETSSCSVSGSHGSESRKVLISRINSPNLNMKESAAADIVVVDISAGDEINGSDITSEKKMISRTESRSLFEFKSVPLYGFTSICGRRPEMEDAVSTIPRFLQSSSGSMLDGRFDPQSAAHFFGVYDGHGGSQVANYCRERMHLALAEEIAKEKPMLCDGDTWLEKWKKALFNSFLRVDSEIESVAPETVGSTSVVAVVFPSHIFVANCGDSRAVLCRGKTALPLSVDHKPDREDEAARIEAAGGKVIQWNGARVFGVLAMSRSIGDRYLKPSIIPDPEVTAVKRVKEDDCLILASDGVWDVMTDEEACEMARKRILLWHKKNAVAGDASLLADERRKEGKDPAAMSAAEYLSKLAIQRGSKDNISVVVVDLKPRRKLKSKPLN", "assay": "SPR, 3AESA immobilised on CM5 chip", "assay_type": "binding", "conditions": "3AESA amide-coupled to chip; 1 uM protein; competed by SA"}, "ABI2 [3]": {"biological_target": "T3, ABI2 (Arabidopsis thaliana, UniProt O04719)", "T3 construct": "ORF from Arabidopsis cDNA library in pET28a, His6-tagged, E. coli Rosetta 2 (DE3), Ni-NTA and gel filtration", "T3 sequence (O04719 1-423)": "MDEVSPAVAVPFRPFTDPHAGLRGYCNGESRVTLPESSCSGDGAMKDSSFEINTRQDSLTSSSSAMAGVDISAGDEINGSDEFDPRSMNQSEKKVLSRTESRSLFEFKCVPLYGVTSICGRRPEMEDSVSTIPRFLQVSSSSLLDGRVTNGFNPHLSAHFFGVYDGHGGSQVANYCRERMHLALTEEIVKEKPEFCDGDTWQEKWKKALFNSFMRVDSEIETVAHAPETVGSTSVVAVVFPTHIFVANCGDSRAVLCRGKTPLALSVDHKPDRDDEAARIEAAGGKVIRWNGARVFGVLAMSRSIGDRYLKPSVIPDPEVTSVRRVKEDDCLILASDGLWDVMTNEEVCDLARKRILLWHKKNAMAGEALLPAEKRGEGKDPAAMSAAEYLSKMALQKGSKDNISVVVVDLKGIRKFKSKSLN", "assay": "SPR, 3AESA immobilised on CM5 chip", "assay_type": "binding", "conditions": "3AESA amide-coupled to chip; 1 uM protein; competed by SA"}, "ABI2 [4]": {"biological_target": "T3, ABI2", "assay": "photoaffinity crosslinking, anti-SA immunoblot", "assay_type": "binding", "conditions": "50 uM 4AzSA; 50 ng protein; photo-activated, covalent; competed by SA"}, "ABI1 [5]": {"biological_target": "T2, ABI1", "assay": "photoaffinity crosslinking, anti-SA immunoblot", "assay_type": "binding", "conditions": "50 uM 4AzSA; 50 ng protein; photo-activated, covalent; competed by SA"}, "PYR1 with ABI1": {"biological_target": "T4, PYR1 with ABI1 (Arabidopsis thaliana, UniProt O49686)", "T4 construct": "His-SUMO-tagged PYR1 immobilised on CM5 chip; His6-ABI1 as analyte; both from E. coli; with Protein phosphatase 2C 56", "T4 sequence (O49686 1-191)": "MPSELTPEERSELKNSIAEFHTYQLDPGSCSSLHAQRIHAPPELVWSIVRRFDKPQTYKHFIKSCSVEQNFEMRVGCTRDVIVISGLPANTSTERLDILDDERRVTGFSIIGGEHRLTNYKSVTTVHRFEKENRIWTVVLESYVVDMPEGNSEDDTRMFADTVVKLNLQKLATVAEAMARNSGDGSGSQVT", "T4 sequence (P49597 1-434 partner)": "T2 sequence (P49597 1-434)", "assay": "SPR of ABI1 binding to immobilised PYR1, enhanced by ABA", "conditions": "indirect: ABA-enhanced receptor-PP2C interaction; HBS-EP buffer"}, "PYL2 with ABI1": {"biological_target": "T5, PYL2 with ABI1 (Arabidopsis thaliana, UniProt O80992)", "T5 construct": "His-SUMO-tagged PYL2 immobilised on CM5 chip; His6-ABI1 as analyte; both from E. coli; with Protein phosphatase 2C 56", "T5 sequence (O80992 1-190)": "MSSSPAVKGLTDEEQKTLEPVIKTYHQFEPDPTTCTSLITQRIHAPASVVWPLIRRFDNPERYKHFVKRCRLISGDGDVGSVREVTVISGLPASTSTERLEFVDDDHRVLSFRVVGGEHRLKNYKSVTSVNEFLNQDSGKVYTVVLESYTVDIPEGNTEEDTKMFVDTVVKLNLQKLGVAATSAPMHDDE", "T5 sequence (P49597 1-434 partner)": "T2 sequence (P49597 1-434)", "assay": "SPR of ABI1 binding to immobilised PYL2, enhanced by ABA", "conditions": "indirect: ABA-enhanced receptor-PP2C interaction; HBS-EP buffer"}, "PYL1 with ABI1": {"biological_target": "T6, PYL1 with ABI1 (Arabidopsis thaliana, UniProt Q8VZS8)", "T6 construct": "His6-SUMO-tagged PYL1 immobilised on CM5 chip; His6-ABI1 as analyte; both from E. coli; with Protein phosphatase 2C 56", "T6 sequence (Q8VZS8 2-221)": "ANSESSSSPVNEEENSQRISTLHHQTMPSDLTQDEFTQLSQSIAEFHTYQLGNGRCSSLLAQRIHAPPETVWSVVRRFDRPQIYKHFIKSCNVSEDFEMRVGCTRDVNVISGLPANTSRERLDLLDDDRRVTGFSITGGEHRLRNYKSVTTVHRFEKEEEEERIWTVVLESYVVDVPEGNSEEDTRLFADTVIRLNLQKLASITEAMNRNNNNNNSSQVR", "T6 sequence (P49597 1-434 partner)": "T2 sequence (P49597 1-434)", "assay": "SPR of ABI1 binding to immobilised PYL1, enhanced by ABA", "conditions": "indirect: ABA-enhanced receptor-PP2C interaction; HBS-EP buffer"}, "ABI1 [6]": {"biological_target": "T2, ABI1", "assay": "size-exclusion chromatography with [3H]SA", "assay_type": "binding", "conditions": "200 nM [3H]SA; 200 ng/ul protein; labelled compound"}, "PP2C-D4 [7]": {"biological_target": "T1, PP2C-D4", "assay": "size-exclusion chromatography with [3H]SA", "assay_type": "binding", "conditions": "200 nM [3H]SA; 200 ng/ul protein; labelled compound"}, "ABI2 [8]": {"biological_target": "T3, ABI2", "assay": "size-exclusion chromatography with [3H]SA", "assay_type": "binding", "conditions": "200 nM [3H]SA; 200 ng/ul protein; labelled compound"}}}
{"smiles": "NCCc1cccc(C(=O)O)c1O", "note": "[3AESA]", "values": [{"measurement": "SPR, 3AESA immobilised on CM5 chip", "setting": "PP2C-D4 [1]", "value": "Binding to 3AESA was detected when purified PP2C‐D4 was passed over the sensor chip"}, {"measurement": "SPR, 3AESA immobilised on CM5 chip", "setting": "ABI1 [2]", "value": "recombinant ABI1 and ABI2 bound the 3AESA‐immobilized sensor chip and crosslinked with 4AzSA"}, {"measurement": "SPR, 3AESA immobilised on CM5 chip", "setting": "ABI2 [3]", "value": "recombinant ABI1 and ABI2 bound the 3AESA‐immobilized sensor chip and crosslinked with 4AzSA"}]}
{"smiles": "[N-]=[N+]=Nc1ccc(C(=O)O)c(O)c1", "note": "[4AzSA]", "values": [{"measurement": "photoaffinity crosslinking, anti-SA immunoblot", "setting": "ABI2 [4]", "value": "recombinant ABI1 and ABI2 bound the 3AESA‐immobilized sensor chip and crosslinked with 4AzSA"}, {"measurement": "photoaffinity crosslinking, anti-SA immunoblot", "setting": "ABI1 [5]", "value": "recombinant ABI1 and ABI2 bound the 3AESA‐immobilized sensor chip and crosslinked with 4AzSA"}]}
{"smiles": "CC1=CC(=O)CC(C)(C)[C@@]1(O)/C=C/C(C)=C\\C(=O)O", "note": "[ABA]", "values": [{"measurement": "SPR of ABI1 binding to immobilised PYR1, enhanced by ABA", "setting": "PYR1 with ABI1", "value": "dose‐dependent binding to the PP2Cs, which was further enhanced in the presence of ABA"}, {"measurement": "SPR of ABI1 binding to immobilised PYL2, enhanced by ABA", "setting": "PYL2 with ABI1", "value": "dose‐dependent binding to the PP2Cs, which was further enhanced in the presence of ABA"}, {"measurement": "SPR of ABI1 binding to immobilised PYL1, enhanced by ABA", "setting": "PYL1 with ABI1", "value": "this binding was enhanced several fold in the presence of ABA"}]}
{"smiles": "O=C(O)c1ccccc1O", "note": "[SA]", "values": [{"measurement": "size-exclusion chromatography with [3H]SA", "setting": "ABI1 [6]", "value": "ABI1 exhibited relatively weak binding to [^3H]SA"}, {"measurement": "size-exclusion chromatography with [3H]SA", "setting": "PP2C-D4 [7]", "value": "PP2C‐D4's ability to bind SA also was confirmed by size‐exclusion chromatography using [^3H]SA"}, {"measurement": "size-exclusion chromatography with [3H]SA", "setting": "ABI2 [8]", "value": "ABI2's binding to [^3H]SA was comparable to that of PP2C‐D4"}]}
